From patent publication US20110105435A1, “THERAPY OPTION FOR RECOLORATION OF HAIR VIA BISPHOSPHONATES BY PHYSIOLOGICAL REPIGMENTATION WITH AGE-RELATED AND/OR PREMATURE "GRAYED" PATIENTS” (priority 2007, published 2011)

System: scalp hair
Experiment: Case observation: scalp hair recoloration in a myeloma patient on zoledronate monotherapy
Assay type: in vivo, human
Settings: Zometa 4 mg i.v. once monthly
Procedure: […] Multiple myeloma is a non-Hodgkin lymphoma and represents one of the most frequent malignant bone diseases.
Multiple myeloma in Stage I according to Durie and Salmon without osteolytic activity was diagnosed in the patient in November 2006. Since Stage I myeloma without clinically relevant symptoms are generally not aggressively treated with cytotostatic substances, the patient was included in an experimental monotherapy scheme applying Zometa® (active ingriedient: zoledronate), 4 mg i.v. in calcium-free infusion solution on a once monthly basis.
Zoledronate treatment is pursued for 6 months with a total of 6 therapy cycles until progression of myeloma (proliferation of plasma cell population in the bone marrow) made a more aggressive therapy approach necessary.
A suprising side-effect was observed:
The patient reported that they were black-haired during their teens and twens.
Since zoledronate was applied in monotherapy and no other relevant measures were deployed, the surprising change in hair coloration in the respective patient was caused by the bisphosphonate therapy of the underlying myeloma disease.

O=P(O)(O)C(O)(Cn1ccnc1)P(=O)(O)O [zoledronate]
change in hair coloration (repigmentation of white scalp hair) (Stage I multiple myeloma patient, completely white-haired at therapy induction, 6 cycles, monotherapy): increasingly developed black scalp hair
duration of treatment until white appearance switched to natural-looking dark-greyish shape (myeloma patient): 3-4 months
